Patent US20230127944A1, “BROAD-SPECTRUM CARBAPENEMS” (priority 2019, published 2023)
≈ marks a conversion by molar mass, not a printed value.

Key:
Assay type in all cases: cell-based
S. aureus USA 600 = test: broth microdilution MIC assay, S. aureus USA600; settings: Staphylococcus aureus; S. aureus USA600 (MRSA); read-out: MIC, S. aureus USA600
Protocol: (§1) To determine the ability of test compounds to inhibit the growth of bacterial strains, classic cell-based broth microdilution MIC assays were employed. MIC assays are performed according to CLSI methods except where otherwise noted (CLSI, 2011 and CLSI, 2009). The reference strains S. aureus ATCC 29213 (methicillin sensitive), S. aureus ATCC 33591 (methicillin-resistant), E. coli ATCC 25922 (wild-type/QC strain), P. aeruginosa ATCC 27853 (wild-type/QC strain), and the clinical isolate P. aeruginosa PA 8 were used to determine the ability of the exemplary carbapenem compounds to inhibit bacterial growth. An expanded panel of methicillin resistance S. aureus (MRSA) and Pseudomonas was also used to determine the ability of exemplary carbapenem compounds to inhibit bacterial growth across a broader representation of those species. To determine activity in MRSA and in addition to S. aureus ATCC 33591, S. aureus USA 300 and USA 600, some of the most common clones found to cause human infection, were also used. To further gauge the impact on the carbapenem compounds due to various resistance mechanisms in Pseudomonas, the following strains were included: P. aeruginosa 35151 (hyper-permeable strain), P. aeruginosa ΔmexAB-OprM (an efflux pump knockout), and P. aeruginosa Paβ-173 (a clinical isolate of reduced carbapenem susceptibility). Briefly, cryo-preserved bacterial cultures of clinical strains are streaked for isolation on appropriate agar medium, in this case Mueller Hinton II agar. Following incubation to allow formation of colonies, these plates are sealed with parafilm and stored refrigerated for up to two weeks. For preparation of assay inocula and to ensure low variability, at least 5 colonies are picked from the agar plates with an inoculating loop and aseptically transferred to a culture tube containing 3 mL of Mueller-Hinton Broth (supplemented with divalent cations to required levels based on Manufacturers' specification). The broth culture is grown for 3-5 hours at 37° C. with shaking at 200 rpm. Meanwhile, 2-fold serial dilutions of test compounds are conducted in a 96 well plate with a final volume of 75 μL per well at 2-fold the final desired concentration. After the dilution plates are set up the growing cultures are then diluted in a cuvette containing MH II broth and the optical density is measured at 600 nm. Inocula are diluted such that 75 μL of this culture in Mueller-Hinton Broth results in a starting bacterial concentration of 5×10^5 CFU/mL when added to the dilution plates. The plates are incubated 16-20 hours at 37° C. The MIC is read visually as the lowest concentration well with no bacterial growth.

[1] = system: P. aeruginosa ATCC 27853 (wild-type/QC strain); test: broth microdilution MIC assay, P. aeruginosa 27853; settings: Pseudomonas aeruginosa, ATCC27853; read-out: MIC, P. aeruginosa 27853
Protocol: as §1

[2] = system: E. coli ATCC 25922 (wild-type/QC strain); test: broth microdilution MIC assay, E. coli 25922; settings: Escherichia coli, ATCC25922; read-out: MIC, E. coli 25922
Protocol: as §1

P. aeruginosa Paeβ-17 = test: broth microdilution MIC assay, P. aeruginosa Paeβ-17; settings: Pseudomonas aeruginosa, read-out: MIC, P. aeruginosa Paeβ-17
Protocol: as §1

[3] = system: P. aeruginosa 35151 (hyper-permeable strain); test: broth microdilution MIC assay, P. aeruginosa 35151; settings: Pseudomonas aeruginosa, read-out: MIC, P. aeruginosa 35151
Protocol: as §1

S. aureus USA 300 = test: broth microdilution MIC assay, S. aureus USA300; settings: Staphylococcus aureus; S. aureus USA300 (MRSA); read-out: MIC, S. aureus USA300
Protocol: as §1

[4] = system: P. aeruginosa ΔmexAB-OprM (an efflux pump knockout); test: broth microdilution MIC assay, P. aeruginosa ΔmexAB-OprM; settings: Pseudomonas aeruginosa, read-out: MIC, P. aeruginosa ΔmexAB-OprM
Protocol: as §1

[5] = system: S. aureus ATCC 33591 (methicillin-resistant); test: broth microdilution MIC assay, S. aureus 33591; settings: Staphylococcus aureus, ATCC33591; S. aureus 33591, methicillin-resistant; read-out: MIC, S. aureus 33591
Protocol: as §1

SMILES | MIC (S. aureus USA 600) | MIC [1] | MIC [2] | MIC (P. aeruginosa Paeβ-17) | MIC [3] | MIC (S. aureus USA 300) | MIC [4] | MIC [5]
C[C@@H](O)[C@H]1C(=O)N2C(C(=O)O)=C(S[C@H]3C[C@@H](N[C@H]4CC[C@H](N)CC4)C3)[C@H](C)[C@H]12 [Example 61, (4R,5S,6S)-3-(((1S,3S)-3-(((1R,4S)-4-aminocyclohexyl)amino)cyclobutyl)thio)-6-((R)-1-hydroxyethyl)-4-methyl-7-oxo-1-azabicyclo[3.2.0]hept-2-ene-2-carboxylic acid] | 1 to 4 µg/mL (≈ 2.44 to 9.77 µM) | 1 to 4 µg/mL (≈ 2.44 to 9.77 µM) | < 1 µg/mL | 8 to 32 µg/mL (≈ 19.5 to 78.1 µM) | < 1 µg/mL | 1 to 4 µg/mL (≈ 2.44 to 9.77 µM) | 1 to 4 µg/mL (≈ 2.44 to 9.77 µM) | 1 to 4 µg/mL (≈ 2.44 to 9.77 µM)
C[C@@H](O)[C@H]1C(=O)N2C(C(=O)O)=C(S[C@H]3C[C@H](N[C@H]4CC[C@@H](N)C4)C3)[C@H](C)[C@H]12 [Example 74, (4R,5S,6S)-3-(((1S,3R)-3-(((1S,3R)-3-aminocyclopentyl)amino)cyclobutyl)thio)-6-((R)-1-hydroxyethyl)-4-methyl-7-oxo-1-azabicyclo[3.2.0]hept-2-ene-2-carboxylic acid] | 1 to 4 µg/mL (≈ 2.53 to 10.1 µM) | 8 to 32 µg/mL (≈ 20.2 to 80.9 µM) | < 1 µg/mL | 1 to 4 µg/mL (≈ 2.53 to 10.1 µM) | < 1 µg/mL | 8 to 32 µg/mL (≈ 20.2 to 80.9 µM) | 8 to 32 µg/mL (≈ 20.2 to 80.9 µM) | 8 to 32 µg/mL (≈ 20.2 to 80.9 µM)
C[C@@H](O)[C@H]1C(=O)N2C(C(=O)O)=C(S[C@H]3C[C@H](N[C@H]4CC[C@H](N)CC4)C3)[C@H](C)[C@H]12 [Example 59, (4R,5S,6S)-3-(((1R,3R)-3-(((1R,4R)-4-aminocyclohexyl)amino)cyclobutyl)thio)-6-((R)-1-hydroxyethyl)-4-methyl-7-oxo-1-azabicyclo[3.2.0]hept-2-ene-2-carboxylic acid] | 8 to 32 µg/mL (≈ 19.5 to 78.1 µM) | 8 to 32 µg/mL (≈ 19.5 to 78.1 µM) | < 1 µg/mL | 8 to 32 µg/mL (≈ 19.5 to 78.1 µM) | < 1 µg/mL | 1 to 4 µg/mL (≈ 2.44 to 9.77 µM) | 1 to 4 µg/mL (≈ 2.44 to 9.77 µM) | 1 to 4 µg/mL (≈ 2.44 to 9.77 µM)
C[C@@H](O)[C@H]1C(=O)N2C(C(=O)O)=C(S[C@@H]3CCN([C@H]4CC[C@@H](CNC(=N)N)CC4)C3)[C@H](C)[C@H]12 [Example 63, (4R,5S,6S)-3-(((R)-1-((1S,4S)-4-(guanidinomethyl)cyclohexyl)pyrrolidin-3-yl)thio)-6-((R)-1-hydroxyethyl)-4-methyl-7-oxo-1-azabicyclo[3.2.0]hept-2-ene-2-carboxylic acid] | 1 to 4 µg/mL (≈ 2.15 to 8.59 µM) | 1 to 4 µg/mL (≈ 2.15 to 8.59 µM) | < 1 µg/mL | 8 to 32 µg/mL (≈ 17.2 to 68.7 µM) | < 1 µg/mL | 1 to 4 µg/mL (≈ 2.15 to 8.59 µM) | 1 to 4 µg/mL (≈ 2.15 to 8.59 µM) | 1 to 4 µg/mL (≈ 2.15 to 8.59 µM)
C[C@@H](O)[C@H]1C(=O)N2C(C(=O)O)=C(S[C@@H]3CC[C@H](NC4CCNCC4)C3)[C@H](C)[C@H]12 [Example 50, (4R,5S,6S)-6-((R)-1-hydroxyethyl)-4-methyl-7-oxo-3-(((1R,3S)-3-(piperidin-4-ylamino)cyclopentyl)thio)-1-azabicyclo[3.2.0]hept-2-ene-2-carboxylic acid] | 1 to 4 µg/mL (≈ 2.44 to 9.77 µM) | 8 to 32 µg/mL (≈ 19.5 to 78.1 µM) | < 1 µg/mL | 8 to 32 µg/mL (≈ 19.5 to 78.1 µM) | < 1 µg/mL | 1 to 4 µg/mL (≈ 2.44 to 9.77 µM) | 1 to 4 µg/mL (≈ 2.44 to 9.77 µM) | 1 to 4 µg/mL (≈ 2.44 to 9.77 µM)
C[C@@H](O)[C@H]1C(=O)N2C(C(=O)O)=C(S[C@@H]3CCN([C@H]4CC[C@H](CN)CC4)C3)[C@H](C)[C@H]12 [Example 58, (4R,5S,6S)-3-(((R)-1-((1R,4R)-4-(aminomethyl)cyclohexyl)pyrrolidin-3-yl)thio)-6-((R)-1-hydroxyethyl)-4-methyl-7-oxo-1-azabicyclo[3.2.0]hept-2-ene-2-carboxylic acid] | 1 to 4 µg/mL (≈ 2.36 to 9.44 µM) | 1 to 4 µg/mL (≈ 2.36 to 9.44 µM) | < 1 µg/mL | 8 to 32 µg/mL (≈ 18.9 to 75.5 µM) | < 1 µg/mL | 1 to 4 µg/mL (≈ 2.36 to 9.44 µM) | 1 to 4 µg/mL (≈ 2.36 to 9.44 µM) | 1 to 4 µg/mL (≈ 2.36 to 9.44 µM)
C[C@@H](O)[C@H]1C(=O)N2C(C(=O)O)=C(SC3CN([C@H]4CC[C@@H](NC(=N)N)C4)C3)[C@H](C)[C@H]12 [Example 9, (4R,5S,6S)-3-((1-((1S,3R)-3-guanidinocyclopentyl)azetidin-3-yl)thio)-6-((R)-1-hydroxyethyl)-4-methyl-7-oxo-1-azabicyclo[3.2.0]hept-2-ene-2-carboxylic acid] | < 1 µg/mL | 1 to 4 µg/mL (≈ 2.36 to 9.44 µM) | < 1 µg/mL | 8 to 32 µg/mL (≈ 18.9 to 75.6 µM) | < 1 µg/mL | < 1 µg/mL | < 1 µg/mL | 1 to 4 µg/mL (≈ 2.36 to 9.44 µM)
C[C@@H](O)[C@H]1C(=O)N2C(C(=O)O)=C(S[C@H]3C[C@H](NC4CCNCC4)C3)[C@H](C)[C@H]12 [Example 38, (4R,5S,6S)-6-((R)-1-hydroxyethyl)-4-methyl-7-oxo-3-(((1R,3R)-3-(piperidin-4-ylamino)cyclobutyl)thio)-1-azabicyclo[3.2.0]hept-2-ene-2-carboxylic acid] | 1 to 4 µg/mL (≈ 2.53 to 10.1 µM) | 8 to 32 µg/mL (≈ 20.2 to 80.9 µM) | < 1 µg/mL | 8 to 32 µg/mL (≈ 20.2 to 80.9 µM) | < 1 µg/mL | 1 to 4 µg/mL (≈ 2.53 to 10.1 µM) | 1 to 4 µg/mL (≈ 2.53 to 10.1 µM) | 8 to 32 µg/mL (≈ 20.2 to 80.9 µM)
C[C@@H](O)[C@H]1C(=O)N2C(C(=O)O)=C(S[C@@H]3CCN([C@H]4CC[C@H](CNC(=N)N)CC4)C3)[C@H](C)[C@H]12 [Example 64, (4R,5S,6S)-3-(((R)-1-((1R,4R)-4-(guanidinomethyl)cyclohexyl)pyrrolidin-3-yl)thio)-6-((R)-1-hydroxyethyl)-4-methyl-7-oxo-1-azabicyclo[3.2.0]hept-2-ene-2-carboxylic acid] | 1 to 4 µg/mL (≈ 2.15 to 8.59 µM) | 1 to 4 µg/mL (≈ 2.15 to 8.59 µM) | < 1 µg/mL | 8 to 32 µg/mL (≈ 17.2 to 68.7 µM) | < 1 µg/mL | 1 to 4 µg/mL (≈ 2.15 to 8.59 µM) | 1 to 4 µg/mL (≈ 2.15 to 8.59 µM) | 1 to 4 µg/mL (≈ 2.15 to 8.59 µM)
C[C@@H](O)[C@H]1C(=O)N2C(C(=O)O)=C(S[C@@H]3CC[C@@H](NC4CCNCC4)C3)[C@H](C)[C@H]12 [Example 53, (4R,5S,6S)-6-((R)-1-hydroxyethyl)-4-methyl-7-oxo-3-(((1R,3R)-3-(piperidin-4-ylamino)cyclopentyl)thio)-1-azabicyclo[3.2.0]hept-2-ene-2-carboxylic acid] | 1 to 4 µg/mL (≈ 2.44 to 9.77 µM) | 8 to 32 µg/mL (≈ 19.5 to 78.1 µM) | < 1 µg/mL | 8 to 32 µg/mL (≈ 19.5 to 78.1 µM) | < 1 µg/mL | 1 to 4 µg/mL (≈ 2.44 to 9.77 µM) | 1 to 4 µg/mL (≈ 2.44 to 9.77 µM) | 8 to 32 µg/mL (≈ 19.5 to 78.1 µM)
C[C@@H](O)[C@H]1C(=O)N2C(C(=O)O)=C(SC3CN([C@H]4CC[C@H](N)C4)C3)[C@H](C)[C@H]12 [Example 5, (4R,5S,6S)-3-((1-((1S,3S)-3-aminocyclopentyl)azetidin-3-yl)thio)-6-((R)-1-hydroxyethyl)-4-methyl-7-oxo-1-azabicyclo[3.2.0]hept-2-ene-2-carboxylic acid] | 1 to 4 µg/mL (≈ 2.62 to 10.5 µM) | 1 to 4 µg/mL (≈ 2.62 to 10.5 µM) | < 1 µg/mL | 8 to 32 µg/mL (≈ 21 to 83.9 µM) | < 1 µg/mL | 1 to 4 µg/mL (≈ 2.62 to 10.5 µM) | 1 to 4 µg/mL (≈ 2.62 to 10.5 µM) | 1 to 4 µg/mL (≈ 2.62 to 10.5 µM)
C[C@@H](O)[C@H]1C(=O)N2C(C(=O)O)=C(SC3CN([C@@H]4CC[C@@H](N)C4)C3)[C@H](C)[C@H]12 [Example 8, (4R,5S,6S)-3-((1-((1R,3R)-3-aminocyclopentyl)azetidin-3-yl)thio)-6-((R)-1-hydroxyethyl)-4-methyl-7-oxo-1-azabicyclo[3.2.0]hept-2-ene-2-carboxylic acid] | 1 to 4 µg/mL (≈ 2.62 to 10.5 µM) | 1 to 4 µg/mL (≈ 2.62 to 10.5 µM) | < 1 µg/mL | 8 to 32 µg/mL (≈ 21 to 83.9 µM) | < 1 µg/mL | 1 to 4 µg/mL (≈ 2.62 to 10.5 µM) | 1 to 4 µg/mL (≈ 2.62 to 10.5 µM) | 1 to 4 µg/mL (≈ 2.62 to 10.5 µM)
